Experimental data published in patent US8420633B2 (Hoffmann-La Roche Inc., priority 2010, dated 2013).
Counter-ions that a name gives are not always drawn.

Target: T1, human V1a receptor (Homo sapiens, UniProt P37288)
T1 construct: expressed in transfected cells; host or cells: HEK293 cells, transiently transfected; membranes prepared
Experiment: human V1a receptor binding (3H-Vasopressin SPA, HEK293 membranes)
Conditions: not given
Method: The human V1a receptor was cloned by RT-PCR from total human liver RNA. The coding sequence was subcloned in an expression vector after sequencing to confirm the identity of the amplified sequence. […] Cell membranes were prepared from HEK293 cells transiently transfected with the expression vector and grown in 20 liter fermenters with the following protocol.
50 g of cells are resuspended in 30 ml freshly prepared ice cold Lysis buffer (50 mM HEPES, 1 mM EDTA, 10 mM magnesium dichloride adjusted to pH=7.4+complete cocktail of protease inhibitor (Roche Diagnostics)). Homogenized with Polytron for 1 min and sonicated on ice for 2×2 minutes at 80% intensity (Vibracell sonicator). The preparation is centrifuged 20 min at 500 g at 4° C., the pellet is discarded and the supernatant centrifuged 1 hour at 43,000 g at 4° C. (19,000 rpm). The pellet is resuspended in 12.5 ml Lysis buffer+12.5 ml sucrose 20% and homogenized using a Polytron for 1-2 min. The protein concentration is determined by the Bradford method and aliquots are stored at −80° C. until use. For binding studies 60 mg Yttrium silicate SPA beads (Amersham®) are mixed with an aliquot of membrane in binding buffer (50 mM Tris, 120 mM sodium chloride, 5 mM potassium chloride, 2 mM calcium dichloride, 10 mM magnesium dichloride) for 15 minutes with mixing. 50 μl of bead/membrane mixture is then added to each well of a 96 well plate, followed by 50 μl of 4 nM 3H-Vasopressin (American Radiolabeled Chemicals). For total binding measurement 100 μl of binding buffer are added to the respective wells, for non-specific binding 100 μl of 8.4 mM cold vasopressin and for compound testing 100 μl of a serial dilution of each compound in 2% dimethyl sulfoxide. The plate is incubated 1 h at room temperature, centrifuged 1 min at 1000 g and counted on a Packard Top-Count. Non-specific binding counts are subtracted from each well and data is normalized to the maximum specific binding set at 100%. To calculate an IC50 the curve is fitted using a non-linear regression model (XLfit) and the Ki is calculated using the Cheng-Prussoff equation.

T1 sequence (P37288 whole entry): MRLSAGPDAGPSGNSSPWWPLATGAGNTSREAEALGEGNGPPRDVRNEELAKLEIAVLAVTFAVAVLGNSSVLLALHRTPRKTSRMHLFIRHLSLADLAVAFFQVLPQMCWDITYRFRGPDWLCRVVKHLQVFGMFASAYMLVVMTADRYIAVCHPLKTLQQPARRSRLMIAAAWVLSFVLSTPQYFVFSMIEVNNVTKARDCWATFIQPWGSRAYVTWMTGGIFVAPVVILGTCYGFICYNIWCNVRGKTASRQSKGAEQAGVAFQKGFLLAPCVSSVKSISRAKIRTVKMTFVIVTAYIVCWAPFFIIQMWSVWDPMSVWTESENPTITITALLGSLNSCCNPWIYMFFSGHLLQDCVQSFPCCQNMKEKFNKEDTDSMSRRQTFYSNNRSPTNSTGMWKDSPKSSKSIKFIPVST

`CC(C)(C)OC(=O)N1Cc2cc(Cl)ccc2-n2c(nnc2[C@H]2CC[C@H](c3cccc4ccccc43)CC2)C1` [Example 19, trans-8-Chloro-1-(4-naphthalen-1-yl-cyclohexyl)-4H,6H-2,3,5,10b-tetraaza-benzo[e]azulene-5-carboxylic acid tert-butyl ester] and `CC(C)(C)OC(=O)N1Cc2cc(Cl)ccc2-n2c(nnc2[C@H]2CC[C@H](c3cccc(C#N)c3)CC2)C1` [Example 25, trans-8-Chloro-1-[4-(3-cyano-phenyl)-cyclohexyl]-4H,6H-2,3,5,10b-tetraaza-benzo[e]azulene-5-carboxylic acid tert-butyl ester] are within 1.5-fold of each other in Ki: 6.03 nM for the first, 7.08 nM for the second.

Same assay, conditions: 3H-Vasopressin displacement, membranes of HEK293 cells transiently transfected with human V1a; Ki from IC50 by Cheng-Prussoff; read-out: pKi (hV1a) (converted)

Going from `CN1Cc2cc(Cl)ccc2-n2c(nnc2[C@H]2CC[C@H](c3cccc(OC(F)(F)F)c3)CC2)C1` [Example 15, trans-8-Chloro-5-methyl-1-[4-(3-trifluoromethoxy-phenyl)-cyclohexyl]-5,6-dihydro-4H-2,3,5,10b-tetraaza-benzo[e]azulene] to `CN1Cc2cc(Cl)ccc2-n2c(nnc2[C@H]2CC[C@H](c3cccc(C#N)c3)CC2)C1` [Example 27, trans-3-[4-(8-Chloro-5-methyl-5,6-dihydro-4H-2,3,5,10b-tetraaza-benzo[e]azulen-1-yl)-cyclohexyl]-benzonitrile], the Ki falls from 10.2 nM to 2.69 nM (3.8-fold).

Compared with `CC(C)(C)OC(=O)N1Cc2cc(Cl)ccc2-n2c(nnc2[C@H]2CC[C@H](c3cccc(F)c3Cl)CC2)C1` [Example 16, trans-8-Chloro-1-[4-(2-chloro-3-fluoro-phenyl)-cyclohexyl]-4H,6H-2,3,5,10b-tetraaza-benzo[e]azulene-5-carboxylic acid tert-butyl ester], `COc1ccc(F)cc1[C@H]1CC[C@H](c2nnc3n2-c2ccc(Cl)cc2CN(C(=O)OC(C)(C)C)C3)CC1` [Example 22, trans-8-Chloro-1-[4-(5-fluoro-2-methoxy-phenyl)-cyclohexyl]-4H,6H-2,3,5,10b-tetraaza-benzo[e]azulene-5-carboxylic acid tert-butyl ester] is 2.7-fold higher in Ki: 4.17 nM for the first, 11.2 nM for the second.

Going from `Fc1cccc([C@H]2CC[C@H](c3nnc4n3-c3ccc(Cl)cc3CNC4)CC2)c1Cl` [Example 17, trans-8-Chloro-1-[4-(2-chloro-3-fluoro-phenyl)-cyclohexyl]-5,6-dihydro-4H-2,3,5,10b-tetraaza-benzo[e]azulene hydrochloride] to `CN1Cc2cc(Cl)ccc2-n2c(nnc2[C@H]2CC[C@H](c3cccc(F)c3Cl)CC2)C1` [Example 18, trans-8-Chloro-1-[4-(2-chloro-3-fluoro-phenyl)-cyclohexyl]-5-methyl-5,6-dihydro-4H-2,3,5,10b-tetraaza-benzo[e]azulene], the Ki falls from 15.1 nM to 3.09 nM (4.9-fold).

First: Clc1ccc2c(c1)CNCc1nnc([C@H]3CC[C@H](c4cccc5ccccc54)CC3)n1-2 [Example 20, trans-8-Chloro-1-(4-naphthalen-1-yl-cyclohexyl)-5,6-dihydro-4H-2,3,5,10b-tetraaza-benzo[e]azulene hydrochloride]
Second: CN1Cc2cc(Cl)ccc2-n2c(nnc2[C@H]2CC[C@H](c3cccc4ccccc43)CC2)C1 [Example 21, trans-8-Chloro-5-methyl-1-(4-naphthalen-1-yl-cyclohexyl)-5,6-dihydro-4H-2,3,5,10b-tetraaza-benzo[e]azulene]
The Ki of the first is 2.7-fold higher: 20.4 nM for the first, 7.59 nM for the second.

Going from `COc1ccc(F)cc1[C@H]1CC[C@H](c2nnc3n2-c2ccc(Cl)cc2CNC3)CC1` [Example 23, trans-8-Chloro-1-[4-(5-fluoro-2-methoxy-phenyl)-cyclohexyl]-5,6-dihydro-4H-2,3,5,10b-tetraaza-benzo[e]azulene hydrochloride] to `COc1ccc(F)cc1[C@H]1CC[C@H](c2nnc3n2-c2ccc(Cl)cc2CN(C)C3)CC1` [Example 24, trans-8-Chloro-1-[4-(5-fluoro-2-methoxy-phenyl)-cyclohexyl]-5-methyl-5,6-dihydro-4H-2,3,5,10b-tetraaza-benzo[e]azulene], the Ki falls from 42.7 nM to 5.75 nM (7.4-fold).

Compared with `N#Cc1cccc([C@H]2CC[C@H](c3nnc4n3-c3ccc(Cl)cc3CNC4)CC2)c1` [Example 26, trans-3-[4-(8-Chloro-5,6-dihydro-4H-2,3,5,10b-tetraaza-benzo[e]azulen-1-yl)-cyclohexyl]-benzonitrile hydrochloride], `CC(=O)N1Cc2cc(Cl)ccc2-n2c(nnc2[C@H]2CC[C@H](c3ccccc3)CC2)C1` [Example 28, trans-1-[8-Chloro-1-(4-phenyl-cyclohexyl)-4H,6H-2,3,5,10b-tetraaza-benzo[e]azulen-5-yl]-ethanone] is 25-fold lower in Ki: 32.4 nM for the first, 1.29 nM for the second.

`CS(=O)(=O)N1Cc2cc(Cl)ccc2-n2c(nnc2[C@H]2CC[C@H](c3ccccc3)CC2)C1` [Example 29, trans-8-Chloro-5-methanesulfonyl-1-(4-phenyl-cyclohexyl)-5,6-dihydro-4H-2,3,5,10b-tetraaza-benzo[e]azulene] and `CC(C)N1Cc2cc(Cl)ccc2-n2c(nnc2[C@H]2CC[C@H](c3ccccc3)CC2)C1` [Example 30, trans-8-Chloro-5-isopropyl-1-(4-phenyl-cyclohexyl)-5,6-dihydro-4H-2,3,5,10b-tetraaza-benzo[e]azulene] are within 1.5-fold of each other in Ki: 1.82 nM for the first, 1.91 nM for the second.

Compared with `Clc1ccc2c(c1)CN(Cc1ccccn1)Cc1nnc([C@H]3CC[C@H](c4ccccc4)CC3)n1-2` [Example 31, trans-8-Chloro-1-(4-phenyl-cyclohexyl)-5-pyridin-2-ylmethyl-5,6-dihydro-4H-2,3,5,10b-tetraaza-benzo[e]azulene], `Clc1ccc2c(c1)CN(c1ccccn1)Cc1nnc([C@H]3CC[C@H](c4ccccc4)CC3)n1-2` [Example 33, trans-8-Chloro-1-(4-phenyl-cyclohexyl)-5-pyridin-2-yl-5,6-dihydro-4H-2,3,5,10b-tetraaza-benzo[e]azulene] is 3.7-fold higher in Ki: 2.4 nM for the first, 8.91 nM for the second.

`OCCN1Cc2cc(Cl)ccc2-n2c(nnc2[C@H]2CC[C@H](c3ccccc3)CC2)C1` [Example 32, trans-2-[8-Chloro-1-(4-phenyl-cyclohexyl)-4H,6H-2,3,5,10b-tetraaza-benzo[e]azulen-5-yl]-ethanol] gave a Ki of 1.41 nM.
